Experiment in all cases: NCI anticancer screen, dose series, 48 h
For experiment [1], the system named is HCC-2998 colon.
Experiment [2] has as its system HT29 colon.
Experiment [3] relates to KM12 colon.
For experiment [4], the system named is M14 melanoma.
In experiment [5] the test system is NCI-H226 lung.
Experiment [6] has as its system NCI-H23 lung.
Experiment [7] concerns OVCAR-5 ovarian.
For experiment [8], the system named is RPMI-8226 leukemia.
Experiment [9] concerns TK-10 renal.
Experiment [10] has as its system U251 CNS.

Each structure is given as a SMILES string.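 These data come from cells grown in 96-well plates and exposed to compound for 48 hours at five concentrations. GI50: concentration for 50% inhibition of growth. TGI: total growth inhibition.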

`Cc1ccc(C(=O)Nc2ccc(CN3CCN(C)CC3)c(C(F)(F)F)c2)cc1C#Cc1cnc(N)cc1C#N`: the GI50 in experiment [1] is 0.407 µM; in [2] it was 0.051 µM; in experiment [3], 0.122 µM; in experiment [4] it was 0.021 µM; in experiment [5] it was 0.155 µM; in [6] it was 0.34 µM. In addition, the GI50 in experiment [7] is 0.309 µM; in experiment [8], 0.496 µM; in experiment [9], 0.19 µM; in experiment [10], 0.222 µM. Further, the TGI worked out at 1.17 µM in experiment [1]; 0.729 µM in experiment [2]; 0.716 µM in [3]; 0.511 µM in [4]; 4.95 µM in experiment [5]; 1.28 µM in [6]. The TGI in experiment [7] came out at 1.42 µM; in experiment [8] it was 2.7 µM; in experiment [9] it was 0.833 µM; in [10] it was 0.997 µM.
As to `Oc1ccc(Cc2ccc(O)c3ncccc23)c2cccnc12`, the GI50 in experiment [1] is 0.524 µM; in [2] it was more than 100 µM; in experiment [3] it was 0.149 µM; in [4], 0.0423 µM; in [5], 0.373 µM; in experiment [6] it was 0.0448 µM. For the same molecule, the GI50 is 0.269 µM in experiment [7], 0.0424 µM in experiment [8], 0.238 µM in experiment [9] and 0.0355 µM in experiment [10]. Moreover, the TGI in experiment [1] was more than 100 µM; in experiment [2] it was more than 100 µM; in experiment [3] it was more than 100 µM; in experiment [4], more than 100 µM; in [5] it was 42.7 µM; in experiment [6], more than 100 µM. In addition, the TGI in [7] was more than 100 µM; in experiment [8], 1.55 µM; in experiment [9] it was 0.996 µM; in experiment [10], more than 100 µM.
On to `Cc1cccc(-c2nc3c(C(=O)NCCN(C)C)cccc3[nH]2)c1`, for which the TGI in [1] was 1.95 µM; in experiment [2] it was 3.48 µM; in experiment [3] it was 4 µM; in experiment [4], 2.98 µM; in experiment [5], 3.89 µM; in [6] it was 2.26 µM. The TGI in experiment [7] came to 4.14 µM; in [8], 9.49 µM; in experiment [9], 4.95 µM; in experiment [10], 5.77 µM.
For `CC(C)N(C(=O)C12C3C4C5(C#N)C3C1(I)C5C42I)C(C)C` (stereo not given), the TGI in experiment [1], in [2], in experiment [3], in experiment [4], in [5] and in [6] was more than 100 µM each time. Besides, the TGI in [7] is more than 100 µM; in experiment [8], more than 67.2 µM; in [9], more than 100 µM; in experiment [10], more than 100 µM.
With `N#Cc1c(C(=O)c2ccccc2)cnn1-c1ccccc1`, the GI50 in experiment [1], in experiment [2], in experiment [3], in experiment [4], in [5] and in experiment [6] was more than 25 µM in each case. Besides, the GI50 in experiment [7], in experiment [8], in [9] and in experiment [10] was more than 25 µM in each case. Also, the TGI in [1], in [2], in experiment [3], in experiment [4], in experiment [5] and in [6] was more than 25 µM each time. Also, the TGI in [7], in [8], in experiment [9] and in experiment [10] was more than 25 µM throughout.
With `N#CC(C(=O)/C(=N/N)C(C#N)c1ccc(Cl)cc1)c1ccc(Cl)cc1` (stereo not given), the TGI in experiment [1], in [2], in experiment [3], in experiment [4], in experiment [5] and in experiment [6] was more than 100 µM each time. For the same molecule, the TGI in experiment [7], in [8], in [9] and in experiment [10] was more than 100 µM each time.
Turning to `C/C(O)=C(\N=O)C(=O)NCCc1ccccc1`, the TGI in [1], in [2], in [3], in experiment [4], in experiment [5] and in [6] was more than 100 µM each time. Moreover, the TGI in [7] was more than 100 µM; in [8], more than 100 µM; in experiment [9] it was more than 79.2 µM; in experiment [10], more than 100 µM.
For the molecule `O=c1cc(C(F)(F)F)c2cc3c(cc2o1)NCCC3`, the TGI in experiment [1], in experiment [2], in experiment [3], in experiment [4], in experiment [5] and in experiment [6] was more than 100 µM in each case. The TGI in [7] is more than 100 µM; in experiment [8], more than 100 µM; in [9], more than 100 µM; in experiment [10], 63.4 µM.
On to `CC1=C(/C=C/C(C)=C\C=C\C(C)=C\C(=O)Nc2ccc3c(c2)OCO3)C(C)(C)CCC1`, for which the GI50 is 3.97 µM in experiment [1]; 11.9 µM in experiment [2]; 39.2 µM in [3]; more than 100 µM in [4]; more than 100 µM in experiment [5]; 17.7 µM in [6]. The GI50 is more than 100 µM in experiment [7], 2.93 µM in experiment [8], more than 100 µM in experiment [9] and 77.5 µM in [10]. For the same molecule, the TGI was 36.5 µM in experiment [1]; more than 100 µM in experiment [2]; more than 100 µM in [3]; more than 100 µM in [4]; more than 100 µM in [5]; more than 100 µM in experiment [6]. Also, the TGI in [7], in experiment [8], in [9] and in [10] was more than 100 µM each time.
`Cc1c(N=Nc2ccc([N+](=O)[O-])cc2)nc2scc(-c3ccccc3)n12`: the TGI in experiment [1], in experiment [2], in experiment [3], in experiment [4], in experiment [5] and in experiment [6] was more than 100 µM each time. The TGI in experiment [7], in experiment [8], in experiment [9] and in [10] was more than 100 µM in each case.

For the origin of these results see PubChem BioAssay (NCI).
